Results taken from ChEMBL document CHEMBL1144726, “"Virtual fragment linking": an approach to identify potent binders from low affinity fragment hits” (J Med Chem, 2008).

molecular target: Nitric oxide synthase, inducible (Homo sapiens, UniProt P35228)
Sequence (P35228 whole entry): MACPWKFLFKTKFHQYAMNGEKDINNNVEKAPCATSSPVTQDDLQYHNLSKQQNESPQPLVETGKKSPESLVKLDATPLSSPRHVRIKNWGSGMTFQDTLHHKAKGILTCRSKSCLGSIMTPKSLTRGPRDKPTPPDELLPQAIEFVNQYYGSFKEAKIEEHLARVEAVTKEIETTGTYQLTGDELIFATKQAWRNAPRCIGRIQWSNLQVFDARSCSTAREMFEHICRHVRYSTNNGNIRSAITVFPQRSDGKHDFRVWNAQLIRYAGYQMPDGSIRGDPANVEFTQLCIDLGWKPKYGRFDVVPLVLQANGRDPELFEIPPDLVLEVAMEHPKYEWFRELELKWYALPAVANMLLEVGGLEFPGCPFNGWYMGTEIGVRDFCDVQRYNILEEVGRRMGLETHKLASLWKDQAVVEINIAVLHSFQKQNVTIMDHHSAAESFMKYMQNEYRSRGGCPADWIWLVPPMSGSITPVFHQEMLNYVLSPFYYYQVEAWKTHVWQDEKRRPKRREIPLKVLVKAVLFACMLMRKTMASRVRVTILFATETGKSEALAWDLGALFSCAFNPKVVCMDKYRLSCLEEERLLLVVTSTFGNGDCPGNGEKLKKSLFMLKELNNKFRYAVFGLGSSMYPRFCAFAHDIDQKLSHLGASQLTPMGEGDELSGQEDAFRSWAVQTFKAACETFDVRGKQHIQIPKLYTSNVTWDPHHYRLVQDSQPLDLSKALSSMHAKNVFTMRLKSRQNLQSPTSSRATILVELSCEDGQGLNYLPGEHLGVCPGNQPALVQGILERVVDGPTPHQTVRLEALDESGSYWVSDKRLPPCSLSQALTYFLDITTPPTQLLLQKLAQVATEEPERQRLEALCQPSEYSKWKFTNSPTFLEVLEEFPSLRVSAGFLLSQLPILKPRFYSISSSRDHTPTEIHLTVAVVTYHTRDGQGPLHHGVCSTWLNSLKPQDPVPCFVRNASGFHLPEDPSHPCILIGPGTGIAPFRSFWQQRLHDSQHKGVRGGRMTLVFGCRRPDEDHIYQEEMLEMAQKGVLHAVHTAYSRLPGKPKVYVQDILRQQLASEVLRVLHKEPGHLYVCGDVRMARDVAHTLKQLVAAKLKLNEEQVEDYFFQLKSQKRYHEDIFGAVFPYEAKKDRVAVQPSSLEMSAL

For `Cc1cccc2c1C(N)=NC(C1CCC1)N2` (stereo not given), the IC50 was 1.2 µM.

molecular target: Estrogen receptor beta (Homo sapiens, UniProt Q92731)
Sequence (Q92731 whole entry): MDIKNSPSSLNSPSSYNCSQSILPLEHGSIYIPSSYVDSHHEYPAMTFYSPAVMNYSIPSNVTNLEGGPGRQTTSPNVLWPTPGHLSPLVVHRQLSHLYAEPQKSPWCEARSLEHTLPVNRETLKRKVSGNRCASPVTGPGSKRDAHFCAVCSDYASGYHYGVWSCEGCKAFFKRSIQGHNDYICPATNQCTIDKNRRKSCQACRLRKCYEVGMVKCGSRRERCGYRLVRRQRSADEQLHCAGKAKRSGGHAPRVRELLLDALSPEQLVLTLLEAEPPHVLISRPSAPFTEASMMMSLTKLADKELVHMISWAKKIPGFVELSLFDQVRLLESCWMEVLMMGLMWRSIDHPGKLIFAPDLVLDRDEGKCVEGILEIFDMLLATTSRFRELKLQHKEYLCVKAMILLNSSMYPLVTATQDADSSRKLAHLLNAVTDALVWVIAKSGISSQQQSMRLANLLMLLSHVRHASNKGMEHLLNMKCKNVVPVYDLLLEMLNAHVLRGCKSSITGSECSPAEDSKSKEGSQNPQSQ

Going from `Oc1ccc2nn(-c3ccccc3)cc2c1` to `Cc1cc(O)ccc1-c1ccccc1`, the IC50 falls from 10 µM to 4 µM (2.5-fold).

`Cc1cc(-c2cccc(Cl)c2)ccc1O` and `Oc1ccc(-c2ccccc2)cc1Cl` are within 1.5-fold of each other in IC50: 2.1 µM for the first, 3.1 µM for the second.

Going from `COc1ccc(-c2ccc(O)cc2)cc1` to `Oc1ccc(-c2cccc(F)c2)cc1`, the IC50 falls from 2.4 µM to 1.2 µM (2-fold). The second is the more potent here.

Compared with `N#Cc1ccccc1-c1ccc(O)cc1`, `Nc1ccc(-c2ccc(O)cc2)cc1Cl` is 1.6-fold higher in IC50: 1.8 µM for the first, 2.9 µM for the second. The first is the more potent here.

For `Oc1ccc(-n2nc3ccccc3c2Cl)cc1`, the IC50 was 1.1 µM.
